From patent US20230338315A1, “METHOD OF PRODUCING PHARMACEUTICAL COCRYSTALS FOR ADDITIVE MANUFACTURING” (BOARD OF REGENTS, THE UNIVERSITY OF TEXAS SYSTEM, priority 2020, published 2023)

How the values were obtained:
[1] = Preformulation studies: solubility in solvents; format: physicochemical; conditions: for Soluble in solvent ET-Acetate: solvent ethyl acetate
Protocol: Both the drug and conformer were soluble in ethyl acetate. Ethyl acetate was used to prepare pure MA-SAC cocrystals using slow solvent evaporation. Briefly, 1:1 molar ratio of MA and SAC were mixed using a mortar and pestle. This blend was dissolved in ethyl acetate at 50° C. in a glass beaker using a magnetic stirrer-hotplate. Once the physical mixture was dissolved, the solvent was placed on an ice bath to induce nucleation of the cocrystals, the beaker was then placed in fume hood until all the solvent was evaporated. After the solvent was evaporated, the crystals were placed in an oven at 60° C. to remove any residual solvent. The resultant crystals were tested for modulated differential scanning calorimetry. A clear phase separation was observed where crystals with two different habits were developed. Samples for each phase were collected and exposed to thermal analysis.

[2] = HPLC with mass spectrophotometer of hot melt extruded mefenamic acid (degradant identification); format: physicochemical
[3] = Preformulation studies with Kollidon VA64 (decomposition of mefenamic acid); format: physicochemical; conditions: presence of Kollidon VA64
[4] = cited from earlier work
[5] = cited from earlier work; remark: listed apart in the source

Soluble in solvent ACN [1]	Soluble in solvent Et—OH [1]	Soluble in solvent Me—OH [1]	Soluble in solvent ET-Acetate [1]	degradation or decarboxylation in the extruded samples ([2]; continuous, solvent-free, polymer assisted hot melt extrusion)	degradation on hot melt extrusion processing (mass spectroscopy) ([2]; processed with saccharin by HME at 200° C., 180° C., 170° C. and 160° C., no polymer carrier)	effect of Kollidon VA64 on decomposition of mefenamic acid [3]	Compound	Log P [4]	pKa [5]
No	Yes	No	Yes	no degradation or decarboxylation	decarboxylation	can delay the decomposition	Cc1cccc(Nc2ccccc2C(=O)O)c1C [Mefenamic acid]	–	–
Yes	No	Yes	Yes	–	–	–	O=C1NS(=O)(=O)c2ccccc21 [Saccharin]	0.91	1.31
